The target of this assay is Potassium voltage-gated channel subfamily A member 3 (Mus musculus, UniProt P16390). As to the kind of experiment: Effective concentration against murine voltage-gated potassium channel subunit Kv1.3 expressed in L929 cells using patch clamp. Type of assay: cell-based.
Sequence of Potassium voltage-gated channel subfamily A member 3 (P16390 whole entry): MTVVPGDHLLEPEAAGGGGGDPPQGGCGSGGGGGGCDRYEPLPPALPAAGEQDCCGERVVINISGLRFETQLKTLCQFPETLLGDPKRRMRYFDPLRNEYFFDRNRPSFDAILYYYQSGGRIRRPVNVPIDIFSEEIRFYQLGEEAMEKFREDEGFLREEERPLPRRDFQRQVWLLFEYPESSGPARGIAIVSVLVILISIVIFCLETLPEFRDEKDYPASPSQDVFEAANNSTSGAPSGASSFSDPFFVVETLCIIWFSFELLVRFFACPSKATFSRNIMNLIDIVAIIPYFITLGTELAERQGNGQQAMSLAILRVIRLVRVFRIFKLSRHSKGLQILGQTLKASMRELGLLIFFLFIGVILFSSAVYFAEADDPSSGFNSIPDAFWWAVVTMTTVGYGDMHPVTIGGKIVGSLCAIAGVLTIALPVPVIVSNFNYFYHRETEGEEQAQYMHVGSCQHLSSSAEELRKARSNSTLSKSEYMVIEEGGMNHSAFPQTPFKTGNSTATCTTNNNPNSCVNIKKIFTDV

As to `NCCCCNC(=O)c1ccc(CN=C(N)N)c2ccn(CCc3ccccc3)c12`, the half-maximal effective concentration (EC50) stood at 75 µM.

Values taken from ChEMBL document CHEMBL1139639, “A three-residue, continuous binding epitope peptidomimetic of ShK toxin as a Kv1.3 inhibitor” (Bioorg Med Chem Lett, 2005).
